Experimental data taken from patent publication EP0267994B2, “The use of a metal complex for the manufacture of a composition for treating dental structures” (NATIONAL RESEARCH LABORATORIES, priority 1986, dated 1988).
Several values for one entry are separate records, joined by “and”; a condition that tells them apart may be missing. Equal entries are not always repeated.

Experiment: case series: professional polishing of the six lower front teeth of heavy calculus formers with MCC paste
Type: in vivo, human
Procedure: This is an example of a series of cases of patients who have been confirmed as heavy calculus formers that were treated with the 1:1 metal complex. Generally, the medication utilized was composed of the active ingredient, disodium monocopper(II) citrate (MCC), C.A.S. Registry Number: 65330-59-8, dispersed in an aqueous vehicle comprising aluminum hydroxide, dicalcium phosphate, sorbitol, carboxymethylcellulose and water to form a paste. All of the cases incorporated herewith, as an example, were confirmed diagnostically by a dentist employing the usual examining techniques, i.e., physical examination, etc. The ages of the patients who participated in this example ranged from 35 to 73 years.
All of the patients in this example, prior to their treatment with the 1:1 metal complexes, had self-treated. In self-treating, all patients brushed with a standard dentifrice, flossed, and applied a mixture of baking soda, salt and water to their teeth at least once a day to contain or control calculus build up. Subsequent to and in conjunction with self-treatment, each patient received professionally a standard course of therapy which involved routinely scaling the teeth with a hand pick and an ultrasonic scaler and polishing the teeth mechanically with a mixture of pumice and stannous fluoride via a rubber prophylaxis cup. The patients in this example were treated every 3, 4 or 6 months and the length of standard treatment by the dentist ranged from about 4 years to about 12 years.
At the time of the first examination by the dentist, each patient's mouth was in extremely poor condition, and gross calculus build up was observed; however, no caries or restorations were present.
Subsequent to the standard professional therapy, treatment of all sides of the six lower front teeth with MCC were initiated and performed by the dentist every 3, 4 or 6 months for a total of 10 months. Treatment consisted of first scaling the six lower front teeth with a hand pick and an ultrasonic scaler to debride the teeth and then polishing the teeth mechanically with the above described MCC mixture via a rubber prophylaxis cup. […] The overall appearance of the six lower front teeth was excellent. […] For a more detailed presentation of this example, see the following table.

## O=C([O-])CC(O)(CC(=O)[O-])C(=O)O.[Cu+2] [MCC, disodium-monocopper(II) citrate]
Calculus Accumulation code 1 = worst condition, 10 = best condition (total absence of accumulation), one value per patient, six lower front teeth, MCC paste every 3, 4 or 6 months for 10 months
  Amt. of Calculus after Application of MCC: +8 (2×) and +9 (2×) and +7
After therapy with the copper complex
  overall appearance of the six lower front teeth: excellent
All patients, compared to the remaining teeth treated with the standard therapy
  calculus accumulation on the six lower front teeth: dramatic reduction in calculus accumulation
Five patients, treatment over 10 months
  side effects or tissue irritation: no side effects or tissue irritation
Two of five patients
  taste complaint: metallic taste from the MCC mixture which subsided immediately upon rinsing
